# Reference: patent US20240262845A1, “PYRIDINIUM SALTS, METHODS OF MAKING, AND METHODS OF USE” (UNIVERSITY OF WYOMING, priority 2023, published 2024)
# “Also recorded” adds a separate entry of the source. Structures can show the parent of a compound that is named as a salt.
# Experiments:
# HEK293T lysates = assay: Chemoproteomic profiling of HEK293T lysates (protein-level enrichment); format: biochemical, human; settings: for Western blot (streptavidin-HRP) proteome labeling profile of elutions: 0-100 μM probe, with/without light, before digestion; for number of proteins identified (from ≥2 unique peptides) showing ≥2-fold enrichment versus DMSO: about 100 μM probe, 5 mg/mL lysate, 60 min incubation, 20 min irradiation: 302 nm (1a), 320 nm (1b), 440 nm (2b)
# Experimental: In lysate tryptophan probe treatment for protein-level characterization: HEK293T cell pellets were suspended in native lysis buffer (50 mM HEPES pH 7.5, 150 mM sodium chloride (NaCl), 1.5 mM MgCl2, 1 mM DTT, 0.8% NP-40, 5% glycerol, and 1× protease inhibitors (Thermo)) at 2× the pellet volume. The samples were sonicated on ice for 30 seconds at 20% amplitude with a 2 second pulse ON and 3 second pulse OFF. Cell debris was removed by centrifugation at 20,000×g for 20 minutes at 4° C. Protein concentration was determined by bicinchoninic acid (BCA) (Pierce) and diluted down to 5 mg/mL with ChemProt buffer (50 mM HEPES pH 7.5, 150 mM NaCl, 1.5 mM MgCl2, 1 mM DTT, 0.4% NP-40, and 1x protease inhibitors (Thermo). 5 mg cell lysates were treated with 100× stocks of the tryptophan probes (pyridinium salts 1a, 1b, and 2b) to generate final concentrations (0, 1, 10, and 100 μM) in 1% DMSO. Lysates were incubated for 1 hour at 4° C. followed by photo-activation at respective wavelengths for 20 minutes at 4° C. Excess probe was removed using Sephadex G-25 PD-10 desalting columns (GE Healthcare) pre-equilibrated with 50 mM HEPES pH 7.5, 150 mM NaCl, 1.5 mM MgCl2, and 0.4% NP-40. The samples were then treated with 100 μL Neutravidin resin as a 50% slurry (Peirce). The samples were incubated overnight on a rotating apparatus at R.T. The following day, the beads were transferred to a MobiCol column (Boca Scientific), washed 3× with phosphate buffered saline (PBS) containing 0.2% SDS, washed 3× with PBS, and the enriched proteins were eluted with 2× NuPAGE lithium dodecyl sulfate (LDS) containing 10 mM DTT (Pierce) and heated for 30 minutes at 55° C. The eluent was collected and subsequently treated with 20 mM iodoacetamide (Pierce) for 30 minutes at R.T. protected from light. Samples were passed through detergent removal columns (Pierce) that were pre-equilibrated with 50 mM HEPES pH 8.0. The samples were treated with 2.5 μg Trypsin/LysC (Promega) at 37° C. for 16 hours. The following day, the sample was collected and prepped for isobaric labeling with TMT reagents (Thermo) as specified by the manufacturer.
# Quantitative proteomics by two-dimensional nano liquid chromatography-tandem mass spectrometry (nLC-MS/MS): For protein-level characterization, the TMT-labeled sample were reconstituted in 0.1% formic acid (FA)/2% acetonitrile for offline high-pH reversed phase separation (RP10) using a Dionex UltiMate 3000 high-performance liquid chromatography (HPLC) system with fraction collection using Chromeleon v.6.8 (Thermo) software. Separation was achieved on a Waters Xbridge C18 3.5 μm 2.1×150 mm HPLC column (Waters) using a flow rate of 250 μL min-1 and the following ternary gradient and conditions: mobile phase A=water (HPLC grade), mobile phase B=acetonitrile (HPLC grade), and mobile phase C=200 mM ammonium acetate, pH 10. Mobile phase C is held at 10% throughout gradient. Starting conditions are 89% mobile phase A and 1% mobile phase B, ramping mobile phase B to 80% over 65 min. Fractions were collected in 96-well plates at 100 sec per well. Fractions were reduced down to 12 fractions, dried, and reconstituted in 0.1% FA/2% acetonitrile for nLC-MS/MS. All data were acquired using a Orbitrap Fusion Lumos coupled to an Easy-nLC 1200 nanoflow liquid chromatograph operating at 300 nL min-1. Peptides were cleaned up using a 1 cm online custom trap then eluted on a custom 20 cm laser pulled 75 μm column with C18 resin. Peptides were quantified using the synchronous precursor selection (SPS-MS3) or HCD method for TMT quantitation with 120k MS1 resolving power, 50 ms max injection time and 100% AGC. MS2 spectra were selected using the top ten most abundant features with a charge state between 2-6 using CID (collision induced dissociation) in the ion trap. The AGC was set to 100% with an isolation width of 0.7. MS3 was performed on the top 10 most abundant MS2 features between 400-1600 amu with a collision energy of 55%, AGC of 250%, and 50k resolution. […]
# lysozyme = molecular target: T1, lysozyme (Gallus gallus, UniProt P00698); assay: Photochemical labeling of lysozyme with pyridinium salts (General Procedure B, LC/MS); format: biochemical, chicken; settings: lysozyme labeling
# T1 construct: Lysozyme (from chicken egg white, >40,000 units/mg of protein); purchased Sigma Aldrich; host or cells: chicken egg white
# T1 sequence (P00698 19-147): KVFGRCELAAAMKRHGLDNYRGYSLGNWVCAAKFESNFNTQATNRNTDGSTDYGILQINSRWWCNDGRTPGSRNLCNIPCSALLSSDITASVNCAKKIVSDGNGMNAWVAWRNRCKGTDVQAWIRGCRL
# Experimental: General Procedure B: Photochemical Irradiation of Peptides and Proteins: To a 2 mL Pyrex LC/MS vial (Thermo model #03-391-39) were sequentially added solutions containing the desired biomolecule, glutathione (GSH), pyridinium salt, and ammonium acetate (NH4OAc). The resulting solution was diluted to a final volume of 500 μL and then sparged using nitrogen for a minimum of 30 minutes prior to irradiation. The actively sparging solution was then placed in an EvoluChem™ PhotoRedOx Box photoreactor that was equipped with a Kessil, PR160 427 nm LED Lamp and was then irradiated (100% lamp intensity) for the designated time at room temperature while maintaining active sparging. The resultant reaction mixture was then analyzed directly by LC/MS. Analysis of labeling outcomes using LC/MS was performed either by extracted ion chromatogram intensities (method A) or by integrating the area under the peaks associated with peptide content (method B). These values were totaled, and estimated percentages were assigned according to relative intensities of peaks or ion counts.
# Labeling of Lysozyme with Pyridinium Salt 2a (Lysozyme-2a Conjugate). Labeling of lysozyme (14.3 kDa) with the pyridinium salt 2a was performed by following general procedure B using the following solutions: lysozyme (27 μL, 182 μM, 10 μM final concentration), pyridinium salt 2a (200 μL, 500 μM, 200 μM final concentration), NH4OAc (100 μL, 100 mM, pH=6.9, 20 mM final concentration), glutathione (15 μL, 10 mM, 300 μM final concentration), and water (158 μL) with a 100% intensity irradiation time of 60 minutes. The reaction mixture was analyzed directly by LC/MS using method A and was estimated to have proceeded in >95% conversion and a 10.9:1 mono:di labeled ratio and 10% glutathionylation of all unlabeled and labeled protein content was observed.
# Labeling of Lysozyme with Pyridinium Salt 2b (Lysozyme-2b Conjugate). Labeling of lysozyme (14.3 kDa) with the pyridinium salt 2b was performed by following general procedure Busing the following solutions: lysozyme (19 μL, 262 μM, […]), 2b (181 μL, 554 μM, 200 μM final concentration), NH4OAc (50 μL, 200 mM, pH=6.9, 20 mM final concentration), glutathione (50 μL, 3 mM, 300 μM final concentration), and water (200 μL) with a 100% intensity irradiation time of 10 minutes. The reaction mixture was analyzed directly by LC/MS using method A and was estimated to have proceeded with 83% conversion. […]
# Labeling of Lysozyme with Pyridinium Salt 2c (Lysozyme-2c Conjugate). […] The reaction mixture was analyzed directly by LC/MS using method A and was estimated to have proceeded with 85% conversion and a 3.7:1 mono:di labeled ratio and 10% glutathionylation of all protein content was observed. […]
Structure (SMILES),Western blot (streptavidin-HRP) proteome labeling profile of elutions (HEK293T lysates),number of proteins identified (from ≥2 unique peptides) showing ≥2-fold enrichment versus DMSO (HEK293T lysates),labeling rate compared to pyridinium salt 2a (lysozyme)
"Cc1cc(C)[n+](N(C)C(=O)OCCCCC[C@@H]2SC[C@@H]3NC(=O)N[C@@H]32)c(C)c1 [pyridinium salt 1a, 2,4,6-trimethyl-1-(methyl(((5-((3aS,4S,6aR)-2-oxohexahydro-1H-thieno[3,4-d]imidazol-4-yl)pentyl)oxy)carbonyl)amino)pyridin-1-ium tetrafluoroborate]",concentration and optically dependent proteome labeling profiles; also recorded: loss of signal,185,–
"Cc1cc(-c2ccccc2)cc(C)[n+]1N(C)C(=O)OCCCCC[C@@H]1SC[C@@H]2NC(=O)N[C@@H]21 [pyridinium salt 1b, 2,6-dimethyl-1-(methyl(((5-((3aS,4S,6aR)-2-oxohexahydro-1H-thieno[3,4-d]imidazole-4-yl)pentyl)oxy)carbonyl)amino)-4-phenylpyridin-1-ium tetrafluoroborate]",concentration and optically dependent proteome labeling profiles; also recorded: dose-response profiles,365,–
"COc1ccc2cc(-c3cc(C)[n+](N(C)C(=O)OCCCCCC[C@H]4NC(=O)N[C@H]4C)c(C)c3)ccc2c1 [pyridinium salt 2c, 4-(6-methoxynaphthalen-2-yl)-2,6-dimethyl-1-(methyl(((6-((4R,5S)-5-methyl-2-oxoimidazolidin-4-yl)hexyl)oxy)carbonyl)amino)pyridin-1-ium trifluoroacetate]",–,–,enhanced rate
